In ChEMBL document CHEMBL1201862, “PubChem BioAssay data set” (2004):
Values joined by “and” are separate entries in the source; they are usually repeats but may differ in a detail not shown here. Identical values can stand only once.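 Cultured in 96-well plates, cells were exposed to test compound for 48 hours across five concentrations. GI50 is the concentration that inhibits growth by half.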 Active and inactive are the calls of the source. Cut-off read from the data, not from the text of the source: active = GI50 up to about 1.1 µM and inactive = higher.

Assays:
Assay in all cases: NCI anticancer screen, dose series, 48 h
SK-MEL-2 = system: SK-MEL-2
HT-29 = system: HT-29
OVCAR-8 = system: OVCAR-8
A549 = system: A549
MCF7 = system: MCF7
TK-10 = system: TK-10
MDA-N = system: MDA-N
SR = system: SR
RXF 393 = system: RXF 393
SK-OV-3 = system: SK-OV-3
UACC-257 = system: UACC-257
OVCAR-4 = system: OVCAR-4
OVCAR-5 = system: OVCAR-5
MDA-MB-231 = system: MDA-MB-231
K562 = system: K562
BT-549 = system: BT-549
LOX IMVI = system: LOX IMVI
OVCAR-3 = system: OVCAR-3

SMILES	GI50 (SK-MEL-2)	GI50 (HT-29)	GI50 (OVCAR-8)	GI50 (A549)	GI50 (MCF7)	GI50 (TK-10)	GI50 (MDA-N)	GI50 (SR)	GI50 (RXF 393)	GI50 (SK-OV-3)	GI50 (UACC-257)	GI50 (OVCAR-4)	GI50 (OVCAR-5)	GI50 (MDA-MB-231)	GI50 (K562)	GI50 (BT-549)	GI50 (LOX IMVI)	GI50 (OVCAR-3)
O=C(CP(c1ccccc1)c1ccccc1)c1cccc(C(=O)CP(c2ccccc2)c2ccccc2)c1	> 100 µM (inactive)	8.2 µM (inactive)	89.7 µM (inactive)	15.6 µM (inactive)	17.9 µM (inactive)	> 100 µM (inactive)	70.3 µM (inactive)	15.7 µM (inactive)	61.7 µM (inactive)	> 100 µM (inactive)	32.1 µM (inactive)	26.1 µM (inactive)	> 100 µM (inactive)	68.9 µM (inactive)	8.02 µM (inactive)	–	–	–
c1nc(NCCc2c[nH]cn2)c2nc[nH]c2n1	> 100 µM (inactive)	> 100 µM (inactive)	> 100 µM (inactive)	> 100 µM (inactive)	–	> 100 µM (inactive)	> 100 µM (inactive)	> 100 µM (inactive)	> 100 µM (inactive)	> 100 µM (inactive)	> 100 µM (inactive)	> 100 µM (inactive)	> 100 µM (inactive)	> 100 µM (inactive)	> 100 µM (inactive)	> 100 µM (inactive)	> 100 µM (inactive)	> 100 µM (inactive)
CS(=O)(=O)c1ccc(NNc2cc(=O)[nH]c(=O)[nH]2)cc1	> 100 µM (inactive)	> 100 µM (inactive)	–	> 100 µM (inactive)	–	0.0155 µM (active)	> 100 µM (inactive)	> 100 µM (inactive)	> 100 µM (inactive)	> 100 µM (inactive)	> 100 µM (inactive)	> 100 µM (inactive)	> 100 µM (inactive)	> 100 µM (inactive)	> 100 µM (inactive)	> 100 µM (inactive)	> 100 µM (inactive)	> 100 µM (inactive)
S=c1sc2c(s1)SCc1cccc(n1)CSc1sc(=S)sc1SCc1cccc(n1)CS2	> 100 µM (inactive)	> 100 µM (inactive)	> 100 µM (inactive)	> 100 µM (inactive)	> 10 µM (inactive)	> 100 µM (inactive)	–	> 100 µM (inactive)	–	> 100 µM (inactive)	> 100 µM (inactive)	–	> 100 µM (inactive)	> 100 µM (inactive)	> 100 µM (inactive)	> 100 µM (inactive)	> 100 µM (inactive)	> 100 µM (inactive)
CCOC(=O)c1c(-c2ccccc2)nc2ccccc2c1O	–	> 100 µM (inactive)	> 100 µM (inactive)	> 100 µM (inactive)	> 100 µM (inactive)	> 100 µM (inactive)	> 100 µM (inactive)	> 100 µM (inactive)	> 100 µM (inactive)	> 100 µM (inactive)	> 100 µM (inactive)	> 100 µM (inactive)	> 100 µM (inactive)	–	> 100 µM (inactive)	–	–	–
O=[N+]([O-])c1cccc(/N=N/c2c(O)ccc3ccccc23)c1	50.4 µM (inactive)	> 100 µM (inactive)	> 100 µM (inactive)	> 100 µM (inactive)	–	44.7 µM (inactive)	87.3 µM (inactive)	–	91.2 µM (inactive)	35.2 µM (inactive)	> 100 µM (inactive)	66.8 µM (inactive)	> 100 µM (inactive)	56.4 µM (inactive)	69 µM (inactive)	43.8 µM (inactive)	> 100 µM (inactive)	> 10 µM (inactive)
COC(=O)CCC1=C(CC(=O)OC)C(C)(OC)N/C1=N/C(=O)OCc1ccccc1 (stereo unspecified)	> 100 µM (inactive)	> 100 µM (inactive)	> 100 µM (inactive)	> 100 µM (inactive)	> 100 µM (inactive)	> 100 µM (inactive)	–	> 100 µM (inactive)	> 100 µM (inactive)	> 100 µM (inactive)	> 100 µM (inactive)	> 100 µM (inactive)	> 100 µM (inactive)	> 100 µM (inactive)	> 100 µM (inactive)	> 100 µM (inactive)	> 100 µM (inactive)	–
COc1ccc(-c2c(C#N)c(N)n(C3OC(CO)C(O)C(O)C3O)c(=S)c2C#N)cc1 (stereo unspecified)	55.8 µM (inactive) and 30.4 µM (inactive)	> 100 µM (inactive)	> 100 µM (inactive)	> 100 µM (inactive)	–	> 100 µM (inactive)	> 100 µM (inactive)	> 100 µM (inactive)	> 100 µM (inactive)	> 100 µM (inactive)	> 100 µM (inactive)	> 100 µM (inactive) and 67.9 µM (inactive)	> 100 µM (inactive)	> 100 µM (inactive)	> 100 µM (inactive)	> 100 µM (inactive) and 76.9 µM (inactive)	> 100 µM (inactive) and 77.4 µM (inactive)	> 100 µM (inactive) and 97.7 µM (inactive)
CCCCc1ccc(Nc2nc(S)c3[nH]cnc3n2)cc1	17 µM (inactive)	10.3 µM (inactive)	> 10 µM (inactive)	36.8 µM (inactive)	> 10 µM (inactive)	20.6 µM (inactive)	–	–	–	> 10 µM (inactive)	21.6 µM (inactive)	23.9 µM (inactive)	17.2 µM (inactive)	28.9 µM (inactive)	43.4 µM (inactive)	17.4 µM (inactive)	17.5 µM (inactive)	16.1 µM (inactive)
CO[C@@H]1C[C@H]2[C@@H]3CC[C@H]([C@@H](C)CO)[C@@]3(C)CC[C@@H]2[C@@]2(C)CC[C@H]3C[C@]312	–	18.5 µM (inactive)	31 µM (inactive)	36 µM (inactive)	16.2 µM (inactive)	> 100 µM (inactive)	34.7 µM (inactive)	31.6 µM (inactive)	19.2 µM (inactive)	–	34 µM (inactive)	33.2 µM (inactive)	> 100 µM (inactive)	28.3 µM (inactive)	22.8 µM (inactive)	–	19.3 µM (inactive)	45.1 µM (inactive)
CSC1=N[C@H](c2ccccc2)CS1	> 100 µM (inactive)	> 100 µM (inactive)	–	> 100 µM (inactive)	> 100 µM (inactive)	> 100 µM (inactive)	> 100 µM (inactive)	–	–	–	> 100 µM (inactive)	> 100 µM (inactive)	> 100 µM (inactive)	–	> 100 µM (inactive)	> 100 µM (inactive)	–	> 100 µM (inactive)
CCCCNC(=S)Nc1nc(C(=O)NNC(=O)c2ccccc2)cs1	19.6 µM (inactive)	24 µM (inactive)	17.4 µM (inactive)	20.4 µM (inactive)	–	19.6 µM (inactive)	17.5 µM (inactive)	29.6 µM (inactive)	–	17.5 µM (inactive)	17.9 µM (inactive)	9.29 µM (inactive)	17.6 µM (inactive)	12.5 µM (inactive)	44.5 µM (inactive)	18.1 µM (inactive)	10.1 µM (inactive)	6.14 µM (inactive)
CCOC(=O)c1ccc(-c2ccc(Cl)cc2)[nH]1	> 10 µM (inactive)	> 10 µM (inactive)	> 10 µM (inactive)	> 10 µM (inactive)	–	> 10 µM (inactive)	5.45 µM (inactive)	> 10 µM (inactive)	–	> 10 µM (inactive)	> 10 µM (inactive)	> 10 µM (inactive)	> 10 µM (inactive)	–	> 10 µM (inactive)	> 10 µM (inactive)	–	> 10 µM (inactive)
CCN(CC)c1ccc(NC(=S)NN(C)C)cc1	> 10 µM (inactive)	> 10 µM (inactive)	> 10 µM (inactive)	> 10 µM (inactive)	> 10 µM (inactive)	> 10 µM (inactive)	> 10 µM (inactive)	> 10 µM (inactive)	> 10 µM (inactive)	> 10 µM (inactive)	> 10 µM (inactive)	> 10 µM (inactive)	–	> 10 µM (inactive)	> 10 µM (inactive)	–	> 10 µM (inactive)	> 10 µM (inactive)
Cc1nc(=O)[nH]c(NCCNCCO)c1C(=O)Nc1cccc2cc3ccccc3cc12	> 100 µM (inactive)	> 100 µM (inactive)	> 100 µM (inactive)	> 100 µM (inactive)	–	> 100 µM (inactive)	> 100 µM (inactive)	> 100 µM (inactive)	> 100 µM (inactive)	–	> 100 µM (inactive)	> 100 µM (inactive)	> 100 µM (inactive)	> 100 µM (inactive)	> 100 µM (inactive)	> 100 µM (inactive)	> 100 µM (inactive)	> 100 µM (inactive)
Cc1cc(O)c2c(c1)OC1(C)CCC3C(C)(C)CCCC34COC2C14 (stereo unspecified)	–	–	16.7 µM (inactive)	13.1 µM (inactive)	–	–	–	> 10 µM (inactive)	–	–	15.5 µM (inactive)	18.6 µM (inactive)	14.7 µM (inactive)	–	20.8 µM (inactive)	–	14 µM (inactive)	13.4 µM (inactive)
CCOC(=O)c1nc2ccccc2nc1NCc1ccc(OC)cc1	–	96.4 µM (inactive)	> 100 µM (inactive)	> 100 µM (inactive)	47.4 µM (inactive)	17 µM (inactive)	–	> 100 µM (inactive)	23.4 µM (inactive)	> 100 µM (inactive)	> 100 µM (inactive)	> 100 µM (inactive)	> 100 µM (inactive)	99.8 µM (inactive)	> 100 µM (inactive)	> 100 µM (inactive)	> 100 µM (inactive)	> 100 µM (inactive)
O=C(O)CCCc1ccc2c(c1)CC1(C2)Cc2cc3c(cc2C1)CCCC3	17.5 µM (inactive)	16.3 µM (inactive)	16.5 µM (inactive)	6.43 µM (inactive)	39.4 µM (inactive)	42.7 µM (inactive)	19.1 µM (inactive)	18.4 µM (inactive)	13.2 µM (inactive)	24.7 µM (inactive)	37.7 µM (inactive)	19.5 µM (inactive)	19.9 µM (inactive)	3.24 µM (inactive)	11.2 µM (inactive)	–	17.7 µM (inactive)	19.3 µM (inactive)
